Test results published in the NIST ThermoML archive (doi:10.1016/j.jct.2011.01.014).

Columns and labels:
[1] = Liquid; for mass density: Vibrating tube method; for speed of sound: sound velocity cell
[2] = xn = mol fraction of the nth substance listed; settings: 101 kPa, Liquid, x2 = 0; for mass density: Vibrating tube method; for speed of sound: sound velocity cell

CC(=O)[O-].[NH3+]CCO [2-hydroxyethylammonium acetate]
[1]
Settings	mass density, 101 kPa [kg/m3]	mass density, 101.33 kPa [kg/m3]	speed of sound, 101 kPa [m/s]	speed of sound, 101.33 kPa [m/s]
288.15 K	1154.7	–	1817.2	–
290.65 K	1153.28	–	1810	–
293.15 K	1151.87	–	1803.2	–
295.65 K	1150.45	–	1796.8	–
298.15 K	–	1149.04	1790.7	1790.7
300.65 K	1147.63	–	1784.8	–
303.15 K	1146.22	–	1779	–
305.65 K	1144.8	–	1773.4	–
308.15 K	1143.39	–	1767.9	–
310.65 K	1141.96	–	1762.5	–
313.15 K	1140.55	–	1757.2	–
315.15 K	1139.18	–	–	–
315.65 K	1139.18	–	1751.9	–
318.15 K	1137.82	–	1746.5	–
320.65 K	1136.45	–	1741.3	–
323.15 K	1135.08	–	1736	–

CCO [ethanol]
[1], 101 kPa
Settings	mass density [kg/m3]	speed of sound [m/s]
288.15 K	793.828	1177.8
290.65 K	791.692	1169.2
293.15 K	789.553	1160.6
295.65 K	787.411	1152
298.15 K	785.261	1143.5
300.65 K	783.106	1135
303.15 K	780.944	1126.5
305.65 K	778.773	1118.1
308.15 K	776.593	1109.7
310.65 K	774.405	1101.2
313.15 K	772.204	1092.8
315.65 K	769.995	1084.5
318.15 K	767.77	1076.2
320.65 K	765.534	1067.9
323.15 K	763.296	1059.6

CCO [ethanol] + CC(=O)[O-].[NH3+]CCO
[2]
Settings	mass density [kg/m3]	speed of sound [m/s]
288.15 K	793.828	1177.8
290.65 K	791.692	1169.2
293.15 K	789.553	1160.6
295.65 K	787.411	1152
298.15 K	785.261	1143.5
300.65 K	783.106	1135
303.15 K	780.944	1126.5
305.65 K	778.773	1118.1
308.15 K	776.593	1109.7
310.65 K	774.405	1101.2
313.15 K	772.204	1092.8
315.65 K	769.995	1084.5
318.15 K	767.77	1076.2
320.65 K	765.534	1067.9
323.15 K	763.296	1059.6
